Test results: the supplement of paper PMC6045584
± gives the standard deviation of the averaged measurements.

How the values were obtained:
LENVATINIB = compound: COc1cc2nccc(Oc3ccc(NC(=O)NC4CC4)c(Cl)c3)c2cc1C(N)=O [LENVATINIB]; test: surviving fraction relative to DMSO-only wells; higher = less growth inhibition; details: exposure time: 5 days
Summary of the method: (§1)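 At 250–500 cells per well in 384-well plates, log-phase tumour cell lines were seeded and, 24 hours on, exposed continuously for five days to inhibitors at 0.5, 1, 5, 10, 50, 100, 500 and 1000 nM. Viability readout was CellTiter-Glo luminescence, reported as surviving fraction normalised to the median of DMSO-only wells.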

BEZ-235 = compound: Cn1c(=O)n(-c2ccc(C(C)(C)C#N)cc2)c2c3cc(-c4cnc5ccccc5c4)ccc3ncc21 [BEZ-235]; test: as above; details: exposure time: 5 days
Summary of the method: as §1

| Test System | surviving fraction (LENVATINIB; 0.5 nM) | surviving fraction (LENVATINIB; 1 nM) | surviving fraction (LENVATINIB; 5 nM) | surviving fraction (LENVATINIB; 10 nM) | surviving fraction (LENVATINIB; 50 nM) | surviving fraction (LENVATINIB; 100 nM) | surviving fraction (LENVATINIB; 500 nM) | surviving fraction (LENVATINIB; 1000 nM) | surviving fraction (BEZ-235; 0.5 nM) | surviving fraction (BEZ-235; 1 nM) | surviving fraction (BEZ-235; 5 nM) | surviving fraction (BEZ-235; 10 nM) | surviving fraction (BEZ-235; 50 nM) | surviving fraction (BEZ-235; 100 nM) | surviving fraction (BEZ-235; 500 nM) | surviving fraction (BEZ-235; 1000 nM) |
| --- | --- | --- | --- | --- | --- | --- | --- | --- | --- | --- | --- | --- | --- | --- | --- | --- |
| PCI30 HEADNECK | 0.998 ± 0.031 | 1.08 ± 0.06 | 1.06 ± 0.082 | 1.07 ± 0.057 | 1.14 ± 0.084 | 1.11 ± 0.08 | 1.11 ± 0.073 | 1.17 ± 0.06 | 0.955 ± 0.089 | 1.07 ± 0.066 | 1.07 ± 0.063 | 1.07 ± 0.082 | 0.83 ± 0.15 | 0.549 ± 0.011 | 0.343 ± 0.014 | 0.29 ± 0.014 |
| SAOS2 BONE | 1.1 ± 0.024 | 1.07 ± 0.0063 | 1.17 ± 0.029 | 1.16 ± 0.047 | 1.12 ± 0.046 | 1.15 ± 0.075 | 1.062 ± 0.0029 | 1.011 ± 0.0035 | 1.18 ± 0.055 | 1.12 ± 0.043 | 1.171 ± 0.01 | 1.23 ± 0.1 | 1.08 ± 0.045 | 0.874 ± 0.0098 | 0.433 ± 0.039 | 0.36 ± 0.014 |
| MDAMB157 BREAST | 0.97 ± 0.13 | 1.03 ± 0.081 | 0.993 ± 0.071 | 1.06 ± 0.11 | 0.934 ± 0.045 | 0.873 ± 0.069 | 0.7437 ± 0.0042 | 0.621 ± 0.045 | 0.983 ± 0.056 | 0.974 ± 0.1 | 0.936 ± 0.12 | 1.02 ± 0.11 | 0.825 ± 0.094 | 0.752 ± 0.081 | 0.454 ± 0.06 | 0.381 ± 0.008 |
| U2OS BONE | 1.01 ± 0.038 | 0.99 ± 0.045 | 1.04 ± 0.039 | 1.02 ± 0.027 | 1.02 ± 0.019 | 1.02 ± 0.033 | 0.891 ± 0.051 | 0.832 ± 0.027 | 1.03 ± 0.049 | 1.058 ± 0.0092 | 1.06 ± 0.011 | 1.06 ± 0.013 | 0.9133 ± 0.0045 | 0.78 ± 0.038 | 0.293 ± 0.006 | 0.256 ± 0.013 |
| 22RV1 PROSTATE | 1.06 ± 0.03 | 1.05 ± 0.056 | 1.05 ± 0.059 | 1.01 ± 0.075 | 1.05 ± 0.11 | 0.97 ± 0.031 | 1.08 ± 0.032 | 1.06 ± 0.12 | 1.04 ± 0.047 | 1.02 ± 0.085 | 0.992 ± 0.097 | 0.949 ± 0.096 | 0.448 ± 0.025 | 0.339 ± 0.065 | 0.126 ± 0.017 | 0.119 ± 0.018 |
| HCC1954 BREAST | 0.904 ± 0.058 | 0.817 ± 0.05 | 1.0393 ± 0.00035 | 0.917 ± 0.04 | 0.993 ± 0.058 | 0.988 ± 0.011 | 1.03 ± 0.11 | 1.11 ± 0.067 | 1.02 ± 0.06 | 0.947 ± 0.1 | 1.05 ± 0.064 | 0.875 ± 0.11 | 0.492 ± 0.02 | 0.363 ± 0.02 | 0.172 ± 0.011 | 0.127 ± 0.0092 |
| HCC202 BREAST | 1.04 ± 0.13 | 0.977 ± 0.21 | 1.1 ± 0.33 | 1.32 ± 0.17 | 0.801 ± 0.56 | 1.15 ± 0.18 | 0.783 ± 0.6 | 0.946 ± 0.25 | 1.02 ± 0.32 | 1.07 ± 0.036 | 1.21 ± 0.22 | 1.34 ± 0.32 | 1.07 ± 0.32 | 0.722 ± 0.27 | 0.388 ± 0.089 | 0.232 ± 0.046 |
| SCC90 HEADNECK | 1.12 ± 0.056 | 1.12 ± 0.071 | 1.15 ± 0.13 | 1.22 ± 0.093 | 1.18 ± 0.098 | 1.17 ± 0.048 | 1.21 ± 0.085 | 1.3 ± 0.074 | 1.12 ± 0.06 | 1.12 ± 0.14 | 1.11 ± 0.018 | 1.03 ± 0.036 | 0.912 ± 0.066 | 0.722 ± 0.079 | 0.376 ± 0.014 | 0.288 ± 0.0071 |
| NOS1 BONE | 1.09 ± 0.012 | 1.01 ± 0.079 | 1.24 ± 0.34 | 0.922 ± 0.074 | 0.826 ± 0.034 | 0.703 ± 0.021 | 0.624 ± 0.087 | 0.529 ± 0.011 | 1.09 ± 0.1 | 1.08 ± 0.089 | 1.08 ± 0.085 | 1.08 ± 0.046 | 0.6 ± 0.036 | 0.49 ± 0.11 | 0.206 ± 0.024 | 0.166 ± 0.032 |
| OS25HAL BONE | 1.03 ± 0.026 | 1.026 ± 0.0067 | 1.01 ± 0.016 | 1.01 ± 0.05 | 0.98 ± 0.027 | 0.938 ± 0.025 | 0.895 ± 0.016 | 0.88 ± 0.021 | 0.995 ± 0.017 | 1.01 ± 0.035 | 0.974 ± 0.031 | 0.965 ± 0.025 | 0.94 ± 0.045 | 0.788 ± 0.04 | 0.25 ± 0.0061 | 0.196 ± 0.018 |
| SCC47 HEADNECK | 1.11 ± 0.068 | 1.02 ± 0.012 | 1.14 ± 0.021 | 1.14 ± 0.1 | 1.06 ± 0.024 | 1.11 ± 0.15 | 1.12 ± 0.081 | 1.08 ± 0.069 | 1.07 ± 0.091 | 1.07 ± 0.019 | 1.12 ± 0.019 | 1.11 ± 0.016 | 1.01 ± 0.092 | 0.996 ± 0.085 | 0.326 ± 0.023 | 0.33 ± 0.0059 |
| BT549 BREAST | 1.1 ± 0.043 | 1.16 ± 0.27 | 1.24 ± 0.031 | 1.11 ± 0.26 | 1.04 ± 0.15 | 1.15 ± 0.056 | 1.11 ± 0.087 | 1.06 ± 0.11 | 1.06 ± 0.11 | 1.03 ± 0.032 | 1.03 ± 0.02 | 0.763 ± 0.22 | 0.699 ± 0.016 | 0.244 ± 0.073 | 0.136 ± 0.017 | 0.247 ± 0.29 |
| 93VU HEADNECK | 1.05 ± 0.044 | 1.11 ± 0.074 | 1.09 ± 0.12 | 1.167 ± 0.0038 | 1.18 ± 0.087 | 1.19 ± 0.086 | 0.99 ± 0.036 | 1.11 ± 0.024 | 0.972 ± 0.12 | 0.985 ± 0.13 | 1.1 ± 0.11 | 1.08 ± 0.059 | 0.921 ± 0.035 | 0.71 ± 0.1 | 0.308 ± 0.053 | 0.334 ± 0.043 |
| NCIH441 LUNG | 1.02 ± 0.12 | 1.11 ± 0.1 | 1.07 ± 0.11 | 1 ± 0.019 | 0.994 ± 0.083 | 1.09 ± 0.041 | 1.09 ± 0.075 | 1.01 ± 0.04 | 1.16 ± 0.081 | 1.11 ± 0.1 | 1.1 ± 0.027 | 1.11 ± 0.11 | 1.21 ± 0.064 | 0.997 ± 0.1 | 0.527 ± 0.027 | 0.356 ± 0.061 |
| SUM159 BREAST | 1.16 ± 0.15 | 1.15 ± 0.11 | 1.11 ± 0.096 | 1.13 ± 0.12 | 1.08 ± 0.034 | 1.04 ± 0.088 | 1.08 ± 0.021 | 1.08 ± 0.017 | 1.11 ± 0.11 | 1.11 ± 0.099 | 1.1 ± 0.065 | 1.09 ± 0.069 | 0.922 ± 0.062 | 0.635 ± 0.065 | 0.228 ± 0.014 | 0.168 ± 0.015 |
| SJSA1 BONE | 1.04 ± 0.034 | 1.02 ± 0.034 | 1.09 ± 0.087 | 1.09 ± 0.051 | 1.15 ± 0.014 | 1.07 ± 0.029 | 1.03 ± 0.022 | 0.997 ± 0.015 | 1.07 ± 0.064 | 1.04 ± 0.05 | 1.035 ± 0.004 | 1.02 ± 0.098 | 0.803 ± 0.031 | 0.623 ± 0.013 | 0.249 ± 0.015 | 0.206 ± 0.012 |
| MDAMB231 BREAST | 1.01 ± 0.029 | 1.02 ± 0.025 | 1.03 ± 0.033 | 1.02 ± 0.011 | 0.988 ± 0.012 | 1.02 ± 0.032 | 0.913 ± 0.032 | 0.882 ± 0.025 | 1.01 ± 0.026 | 1.02 ± 0.034 | 1.01 ± 0.032 | 0.959 ± 0.037 | 0.574 ± 0.016 | 0.437 ± 0.019 | 0.231 ± 0.0068 | 0.227 ± 0.013 |
| CME SYNOVIAL | 1.28 ± 0.14 | 1.25 ± 0.12 | 1.18 ± 0.092 | 1.17 ± 0.3 | 1.22 ± 0.076 | 1.1 ± 0.038 | 0.847 ± 0.074 | 0.91 ± 0.029 | 1.18 ± 0.12 | 1.28 ± 0.12 | 1.16 ± 0.066 | 1.26 ± 0.11 | 1.3 ± 0.11 | 1.12 ± 0.087 | 0.959 ± 0.076 | 0.713 ± 0.14 |
| T47D BREAST | 1.09 ± 0.018 | 1.09 ± 0.018 | 1.08 ± 0.044 | 1.06 ± 0.057 | 1.1 ± 0.028 | 1.13 ± 0.046 | 1.12 ± 0.064 | 1.1 ± 0.023 | 1.07 ± 0.034 | 1.05 ± 0.015 | 1.04 ± 0.019 | 1.02 ± 0.016 | 0.89 ± 0.015 | 0.7209 ± 0.0056 | 0.47 ± 0.016 | 0.312 ± 0.0077 |
